The source of these data is ChEMBL document CHEMBL3243958, “Bufotenine esters” (J Med Chem, 1979).

Series [1] in a line: Stability in Sprague-Dawley rat stomach fundus strip assessed as hydrolysis. The settings on record: read-out: Drug metabolism. In kind it is ADME, tissue-based.
Series [2] is described as follows: Chemical stability of the compound assessed as ester hydrolysis in Tyrode's solution at 37 degC for 10 to 15 mins. In kind it is physicochemical. The settings on record: read-out: Drug metabolism.
Series [3] can be described thus: Chloroform to aqueous buffer partition coefficient, log P of the compound at pH 7.4 by shake flask method. In kind it is physicochemical.
Series [4] deals with Serotonin 1 (5-HT1) receptor (Rattus norvegicus, UniProt P28564+P30940+P19327+P28565). Put plainly: Antagonist activity at 5-HT1 receptor in Sprague-Dawley rat assessed as inhibition of 5-HT-induced stomach fundus contraction.

In general, logP refers to the decadic logarithm of the partition coefficient of the neutral form, usually between octanol and water. Read a high logP as a more lipophilic compound. A word on the pA2: it is a measure of antagonist potency on a negative log scale.

Consider `CN(C)CCc1c[nH]c2ccc(OC(=O)C(C)(C)C)cc12`, for which the metabolised in series [1] was found to be 15%. The degraded in series [2] was found to be 1%.
In series [3], `CN(C)CCc1c[nH]c2ccc(O)cc12` [BUFOTENINE] yielded a logP of 0.06. In addition, the pA2 in series [4] worked out at 7.41.
Consider `CC(=O)Oc1ccc2[nH]cc(CCN(C)C)c2c1.O=C(O)C(=O)O`, for which, in series [3], the logP was 2.31. In addition, in series [4], the pA2 was 7.71. For the same molecule, the metabolised in series [1] was under 5%. Moreover, in series [2], the degraded turned out to be 5%.
Turning to `CCCC(=O)Oc1ccc2[nH]cc(CCN(C)C)c2c1.O=C(O)C(=O)O`, the pA2 in series [4] amounted to 7.32. In addition, the metabolised in series [1] amounted to 15%. In series [2], the degraded was 5%.
Regarding `COc1ccc2[nH]cc(CCN(C)C)c2c1` [MEBUFOTENIN], the logP in series [3] is recorded as 3.3.
`CCC(=O)Oc1ccc2[nH]cc(CCN(C)C)c2c1.O=C(O)C(=O)O`: the logP in series [3] came out at 5.6. For the same molecule, in series [1], the metabolised came out at 15%. Moreover, in series [2], the degraded came to 5%.
In the case of `CN(C)CCc1c[nH]c2ccccc12`, the lipophilicity (logP) in series [3] is recorded as 2.61. For the same molecule, the pA2 in series [4] is 6.
`CC(C)C(=O)Oc1ccc2[nH]cc(CCN(C)C)c2c1`: the metabolised in series [1] was found to be 15%. Further, the degraded in series [2] was 1%.
